The values below are quoted from earlier work in patent publication US20220370332A1, “PRODUCT FOR DYEING KERATINOUS MATERIAL, CONTAINING AMINOSILICONE, A CHROMOPHORIC COMPOUND, PRESERVATIVE AND ETHOXYLATED FATTY ALCOHOL” (Henkel AG & Co. KGaA, priority 2019, published 2022).

The conditions of the data set: 25° C.
As for `O=S(=O)([O-])c1ccc(N=Nc2c(O)ccc3ccccc23)cc1.[Na+]` [Acid Orange 7, sodium salt of 4-[(2-hydroxy-1-naphthyl)azo]benzene sulphonate], the solubility in water result is “more than 7 g/L”. As for `Nc1cc(S(=O)(=O)[O-])cc2cc(S(=O)(=O)[O-])c(N=Nc3ccccc3)c(O)c12.[Na+].[Na+]` [Acid Red 33, diantrium salt of 5-amino-4-hydroxy-3-(phenylazo)-naphthalene-2,7-disulphonate], the solubility in water is 2500 µg/mL. `CCN(Cc1cccc(S(=O)(=O)[O-])c1)c1ccc(C(=C2C=CC(=[N+](CC)Cc3cccc(S(=O)(=O)[O-])c3)C=C2)c2ccccc2S(=O)(=O)[O-])cc1.[Na+].[Na+]` [Acid Blue 9]: the solubility in water result was “more than 20 % by weight”. `O=C([O-])C1=NN(c2ccc(S(=O)(=O)[O-])cc2)C(=O)C1N=Nc1ccc(S(=O)(=O)[O-])cc1.[Na+].[Na+].[Na+]` (centres unmarked) [Acid Yellow 23, trisodium salt of 4,5-dihydro-5-oxo-1-(4-sulfophenyl)-4-((4-sulfophenyl)azo)-1H-pyrazole-3-carboxylic acid]: the “solubility in water” value is on record as “highly soluble in water”. For `O=C([O-])c1c(Cl)c(Cl)c(Cl)c(Cl)c1-c1c2c(Br)cc(=O)c(Br)c-2oc2c(Br)c(O)cc(Br)c12.O=C([O-])c1c(Cl)c(Cl)c(Cl)c(Cl)c1-c1c2c(Br)cc(=O)c(Br)c-2oc2c(Br)c(O)cc(Br)c12.[Na+].[Na+]` [Acid Red 92, disodium salt of 3,4,5,6-tetrachloro-2-(1,4,5,8-tetrabromo-6-hydroxy-3-oxoxanthen-9-yl)benzoic acid], the solubility in water entry is reported as “greater than 10 g/L”.
